Reference: patent publication US20260092054A1, “FUSED RING COMPOUND AND PHARMACEUTICAL CONTAINING SAME” (KAKEN PHARMACEUTICAL CO., LTD., priority 2022, published 2026)

Columns and labels:
[1] = test system: human STAT6; assay: Human STAT6 dependent reporter activity (IL-4 stimulated STAT6 reporter assay using STAT6-HEK293 cells); assay type: cell-based; details: IL-4 stimulation, luciferase activity; for inhibition at 0.1 µM / inhibition at 1 µM: Homo sapiens, read-out: Inhibition rate (%)
[2] = biological target: T1, human STAT6/pIL-4Rα (Homo sapiens, UniProt P42226); assay: Binding inhibitory activity between human STAT6/pIL-4Rα by fluorescence polarization method; details: rhSTAT6 (123-658) / FAM-pIL-4Rα peptide
T1 construct: histidine tag
T1 sequence (P42226 123-658): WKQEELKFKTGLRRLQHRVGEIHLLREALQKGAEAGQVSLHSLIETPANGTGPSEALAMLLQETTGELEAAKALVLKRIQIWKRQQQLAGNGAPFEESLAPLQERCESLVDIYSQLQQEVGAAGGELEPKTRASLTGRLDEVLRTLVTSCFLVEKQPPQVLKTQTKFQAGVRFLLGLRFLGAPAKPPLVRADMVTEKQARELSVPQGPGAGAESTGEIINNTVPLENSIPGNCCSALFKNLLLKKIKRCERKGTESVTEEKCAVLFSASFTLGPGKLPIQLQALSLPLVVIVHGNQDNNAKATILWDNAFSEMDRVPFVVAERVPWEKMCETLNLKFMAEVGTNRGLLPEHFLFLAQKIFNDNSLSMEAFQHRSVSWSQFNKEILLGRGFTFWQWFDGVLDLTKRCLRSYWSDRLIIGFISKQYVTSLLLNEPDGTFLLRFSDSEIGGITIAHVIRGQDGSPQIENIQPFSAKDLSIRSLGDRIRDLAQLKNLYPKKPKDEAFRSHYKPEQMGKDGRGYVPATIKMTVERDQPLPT
Summary of the method: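 His-tagged human STAT6 (residues 123–658, E. coli-expressed) was preincubated with compound for 30 min at RT in the dark, in buffer e.g. 50 mM NaCl, 10 mM HEPES pH 7.0, 1 mM DTT, 1 mM EDTA, 0.01% NP-40. FAM-pIL-4Rα peptide was then added for 30 min. Fluorescence polarisation was read at 485/535 nm, with IC50 interpolated linearly between two points flanking 50%.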

CCn1c(-c2ccc(-n3c(C)nn(C)c3=O)cn2)cc2cc(C(F)(F)F)cc(C(=O)Nc3cccc(C(N)=O)c3F)c21 [Ex. 19]
inhibition at 0.1 µM ([1]; compound 0.1 μmol/L): 42%
inhibition at 1 µM ([1]; compound 1 μmol/L): 98%
IC50 [2]: 360 nM

CCn1c(-c2ccc(-n3c(C)nn(C)c3=O)cc2)cc2ccnc(C(=O)Nc3cccc(C(=O)Nc4cncn(C)c4=O)c3F)c21 [Ex. 193]
inhibition at 0.1 µM ([1]; compound 0.1 μmol/L): 67%
inhibition at 1 µM ([1]; compound 1 μmol/L): 98%
IC50 [2]: 420 nM

COCCn1c(-c2ccc(-n3c(C)nn(C)c3=O)cc2)cc2ccnc(C(=O)Nc3ccc(F)c(C(N)=O)c3)c21 [Ex. 27]
inhibition at 0.1 µM ([1]; compound 0.1 μmol/L): 52%
inhibition at 1 µM ([1]; compound 1 μmol/L): 96%
IC50 [2]: 350 nM

CCn1c(-c2ccc(-n3c(C)nn(C)c3=O)cc2)cc2ccnc(C(=O)Nc3ccc(F)c(C(N)=O)c3)c21 [Ex. 21]
inhibition at 0.1 µM ([1]; compound 0.1 μmol/L): 73%
inhibition at 1 µM ([1]; compound 1 μmol/L): 98%
IC50 [2]: 380 nM

COCCn1c(-c2ccc(-n3c(C)nn(C)c3=O)cc2)cc2cc(C(F)(F)F)cc(C(=O)Nc3cccnc3OC)c21 [Ex. 70]
inhibition at 0.1 µM ([1]; compound 0.1 μmol/L): -6%
inhibition at 1 µM ([1]; compound 1 μmol/L): 45%
IC50 [2]: 760 nM

CCn1c(-c2ccc(-n3c(C)nn(C)c3=O)cc2)cc2cc(C(F)(F)F)nc(C(=O)Nc3ccc(F)c(C(N)=O)c3)c21 [Ex. 23]
inhibition at 0.1 µM ([1]; compound 0.1 μmol/L): 86%
inhibition at 1 µM ([1]; compound 1 μmol/L): 100%
IC50 [2]: 240 nM

CCn1c(-c2ccc(-n3c(C)nn(C)c3=O)cc2)cc2ccnc(C(=O)Nc3cccc(C(N)=O)c3F)c21 [Ex. 22]
inhibition at 0.1 µM ([1]; compound 0.1 μmol/L): 89%
inhibition at 1 µM ([1]; compound 1 μmol/L): 99%
IC50 [2]: 320 nM

COCCn1c(-c2ccc(-n3c(C)nn(C)c3=O)cc2)cc2cc(C(F)(F)F)nc(C(=O)Nc3cccc(C(N)=O)c3)c21 [Ex. 91]
inhibition at 0.1 µM ([1]; compound 0.1 μmol/L): 67%
inhibition at 1 µM ([1]; compound 1 μmol/L): 99%
IC50 [2]: 250 nM

CCn1c(-c2ccc(N3C(=O)C(C)CC3C)cc2)cc2ccnc(C(=O)Nc3ccc(F)c(C(N)=O)c3)c21 (stereo not shown) [Ex. 129]
Inhibition rate (%) ([1]; compound 0.1 μmol/L): 8%
Inhibition rate (%) ([1]; compound 1 μmol/L): 75%
IC50 [2]: 590 nM

COCCn1c(-c2ccc(-n3c(C)nn(C)c3=O)cc2)cc2cc(C(F)(F)F)cc(COc3cccc(C(N)=O)c3)c21 [Ex. 138]
inhibition at 0.1 µM ([1]; compound 0.1 μmol/L): 35%
inhibition at 1 µM ([1]; compound 1 μmol/L): 93%
IC50 [2]: 370 nM

Cc1nn(C)c(=O)n1-c1ccc(-c2cc3ccnc(C(=O)Nc4cccc(C(=O)Nc5cccn(C)c5=O)c4)c3n2CC2(C#N)CC2)cc1 [Ex. 200]
inhibition at 0.1 µM ([1]; compound 0.1 μmol/L): 53%
inhibition at 1 µM ([1]; compound 1 μmol/L): 99%
IC50 [2]: 230 nM

Cc1nn(C)c(=O)n1-c1ccc(-c2cc3ccnc(C(=O)Nc4cccc(C(N)=O)c4F)c3n2CC2(C#N)CC2)cc1 [Ex. 123]
inhibition at 0.1 µM ([1]; compound 0.1 μmol/L): 40%
inhibition at 1 µM ([1]; compound 1 μmol/L): 96%
IC50 [2]: 500 nM

Cc1nn(C)c(=O)n1-c1ccc(-c2cc3cc(C(F)(F)F)nc(C(=O)Nc4cccc(C(N)=O)c4F)c3n2C)cc1 [Ex. 94]
inhibition at 0.1 µM ([1]; compound 0.1 μmol/L): 79%
IC50 [2]: 310 nM

Cc1nn(C)c(=O)n1-c1ccc(-c2cc3cc(C(F)(F)F)cc(C(=O)Nc4ccc(F)c(C(N)=O)c4)c3n2CC2CC2)cc1 [Ex. 67]
inhibition at 0.1 µM ([1]; compound 0.1 μmol/L): 56%
inhibition at 1 µM ([1]; compound 1 μmol/L): 96%
IC50 [2]: 580 nM

CC1CC(C)N(c2ccc(-c3cc4ccnc(C(=O)Nc5ccc(F)c(C(N)=O)c5)c4n3CC3(C#N)CC3)cc2)C1=O (single isomer, unassigned) [Ex. 221]
inhibition at 0.1 µM ([1]; compound 0.1 μmol/L): 60%
inhibition at 1 µM ([1]; compound 1 μmol/L): 94%
IC50 [2]: 360 nM

CCn1c(-c2ccc(N3CCOCC3=O)cc2)cc2cc(C(F)(F)F)cc(C(=O)Nc3ccc(F)c(C(N)=O)c3)c21 [Ex. 31]
inhibition at 0.1 µM ([1]; compound 0.1 μmol/L): 80%
inhibition at 1 µM ([1]; compound 1 μmol/L): 97%
IC50 [2]: 460 nM

CCn1c(-c2ccc(-n3ncn(C)c3=O)cc2)cc2cccc(C(=O)Nc3ccc(F)c(C(N)=O)c3)c21 [Ex. 156]
inhibition at 0.1 µM ([1]; compound 0.1 μmol/L): 46%
inhibition at 1 µM ([1]; compound 1 μmol/L): 99%
IC50 [2]: 400 nM

CCn1c(-c2ccc(-n3ncn(C)c3=O)cc2)cc2ccnc(C(=O)Nc3ccc(F)c(C(N)=O)c3)c21 [Ex. 144]
inhibition at 0.1 µM ([1]; compound 0.1 μmol/L): 48%
inhibition at 1 µM ([1]; compound 1 μmol/L): 99%
IC50 [2]: 370 nM

CCn1c(-c2ccc(N3C(=O)C(C)CC3C)cc2)cc2cccc(C(=O)Nc3ccc(F)c(C(N)=O)c3)c21 (stereo not shown) [Ex. 158]
inhibition at 0.1 µM ([1]; compound 0.1 μmol/L): 44%
inhibition at 1 µM ([1]; compound 1 μmol/L): 96%
IC50 [2]: 730 nM

CCn1c(-c2ccc(-n3c(C)nn(C)c3=O)cc2)cc2ccnc(C(=O)Nc3cccc(C(=O)Nc4cccn(C)c4=O)c3)c21 [Ex. 169]
inhibition at 0.1 µM ([1]; compound 0.1 μmol/L): 81%
inhibition at 1 µM ([1]; compound 1 μmol/L): 99%
IC50 [2]: 400 nM

CCn1c(-c2ccc(-n3nccn3)cc2)nc2cc(Br)cc(C(=O)Nc3cccc(C(N)=O)c3)c21 [Ex. 6]
inhibition at 0.1 µM ([1]; compound 0.1 μmol/L): -1%
inhibition at 1 µM ([1]; compound 1 μmol/L): 52%
IC50 [2]: 1140 nM

Cc1nn(C)c(=O)n1-c1ccc(-c2cc3cc(C(F)(F)F)cc(C(=O)Nc4cccc(C(N)=O)c4)c3n2CC2(C#N)CC2)cc1 [Ex. 126]
inhibition at 0.1 µM ([1]; compound 0.1 μmol/L): 62%
IC50 [2]: 240 nM

CCn1c(-c2ccc(-n3cnn(C)c3=O)cc2)cc2ccnc(C(=O)Nc3cccc(C(N)=O)c3F)c21 [Ex. 99]
inhibition at 0.1 µM ([1]; compound 0.1 μmol/L): 51%
inhibition at 1 µM ([1]; compound 1 μmol/L): 95%
IC50 [2]: 380 nM

COCCn1c(-c2ccc(-n3c(C)nn(C)c3=O)cc2)cc2cc(C(F)(F)F)cc(C(=O)Nc3cccc(C#N)c3)c21 [Ex. 52]
inhibition at 0.1 µM ([1]; compound 0.1 μmol/L): 52%
inhibition at 1 µM ([1]; compound 1 μmol/L): 100%
IC50 [2]: 190 nM

CCn1c(-c2ccc(-n3c(C)nn(C)c3=O)cc2C(F)(F)F)cc2cc(C(F)(F)F)cc(C(=O)Nc3ccc(F)c(C(N)=O)c3)c21 [Ex. 152]
inhibition at 0.1 µM ([1]; compound 0.1 μmol/L): 38%
inhibition at 1 µM ([1]; compound 1 μmol/L): 84%
IC50 [2]: 650 nM

COCCn1c(-c2ccc(-n3c(C)nn(C)c3=O)cc2)cc2cc(C(F)(F)F)cc(C(=O)Nc3cccc(COC)n3)c21 [Ex. 100]
inhibition at 0.1 µM ([1]; compound 0.1 μmol/L): 85%
IC50 [2]: 300 nM

CCn1c(-c2ccc(-n3c(C)nn(C)c3=O)nc2)cc2cccc(C(=O)Nc3cccc(C(N)=O)c3F)c21 [Ex. 145]
inhibition at 0.1 µM ([1]; compound 0.1 μmol/L): 53%
inhibition at 1 µM ([1]; compound 1 μmol/L): 97%
IC50 [2]: 280 nM

COCCn1c(-c2ccc(-n3c(C)nn(C)c3=O)cc2)cc2ccnc(C(=O)Nc3cccc(C(=O)Nc4cc(Cl)n(C)n4)c3)c21 [Ex. 202]
inhibition at 0.1 µM ([1]; compound 0.1 μmol/L): 95%
IC50 [2]: 340 nM

CCn1c(-c2ccc(-n3c(C)nn(C)c3=O)cc2)cc2ccnc(C(=O)Nc3cccc(C(=O)Nc4ccn(C)n4)c3)c21 [Ex. 201]
inhibition at 0.1 µM ([1]; compound 0.1 μmol/L): 99%
IC50 [2]: 310 nM

Cc1nn(C)c(=O)n1-c1ccc(-c2cc3ccnc(C(=O)Nc4ccc(F)c(C(N)=O)c4)c3n2C)cc1 [Ex. 108]
inhibition at 0.1 µM ([1]; compound 0.1 μmol/L): 52%
inhibition at 1 µM ([1]; compound 1 μmol/L): 97%
IC50 [2]: 460 nM

COCCn1c(-c2ccc(-n3c(C)nn(C)c3=O)cc2)cc2cc(C(F)(F)F)cc(C(=O)Nc3cccc(C(=O)Nc4cccc(COC)n4)c3)c21 [Ex. 174]
inhibition at 0.1 µM ([1]; compound 0.1 μmol/L): 70%
IC50 [2]: 680 nM

CCn1c(-c2ccc(N3C(=O)C(C)CC3C)nc2)cc2cc(C(F)(F)F)cc(C(=O)Nc3ccc(F)c(C(N)=O)c3)c21 (stereo not shown) [Ex. 157]
inhibition at 0.1 µM ([1]; compound 0.1 μmol/L): 62%
IC50 [2]: 310 nM

COCCn1c(-c2ccc(N3C(=O)C(C)CC3C)cc2)cc2cc(C(F)(F)F)nc(C(=O)Nc3ccc(F)c(C(N)=O)c3)c21 (stereo not shown) [Ex. 133]
inhibition at 0.1 µM ([1]; compound 0.1 μmol/L): 80%
IC50 [2]: 230 nM

CCn1c(-c2ccc(-n3c(C)nn(C)c3=O)cc2)c(I)c2cncc(C(=O)Nc3ccc(F)c(C(N)=O)c3)c21 [Ex. 140]
inhibition at 0.1 µM ([1]; compound 0.1 μmol/L): 3%
inhibition at 1 µM ([1]; compound 1 μmol/L): 45%
IC50 [2]: 2720 nM

CCn1c(-c2ccc(NC(C)=O)cc2)cc2ccnc(C(=O)Nc3ccc(F)c(C(=O)NCC#N)c3)c21 [Ex. 149]
inhibition at 0.1 µM ([1]; compound 0.1 μmol/L): 25%
inhibition at 1 µM ([1]; compound 1 μmol/L): 84%
IC50 [2]: 330 nM
